Assay results reported in a melting point compilation (Tetko et al.; mined from patent text by program, amines drawn as free bases though some values may be those of a salt).

Row | SMILES | melting point [°C]
1 | COc1cc2c(c(OC)c1OC)C(C)(C)CC(C=O)=C2 | 178 to 180
2 | C=CCC(=C)C(O)C(NC=O)C(=O)OC (stereo unspecified) | 75 to 77
3 | CCOC(=O)c1c(C(F)(F)F)nc(C(F)(F)F)c(C)c1OCC | 72.5 to 74
4 | O=C(O)CCCCC(=NOCc1ccc(OCc2nc(-c3ccccc3)no2)cc1)c1ccccc1 | 91 to 92
5 | CCCc1c(C(=O)C(C)C)c2ccc(C(=O)OC)cc2n1Cc1ccc(Br)cc1F | 110 to 112
6 | CC(C)(C)c1cc(C(=O)c2ccsc2)cc2c1OCC2(C)C | 89 to 90
7 | O=C(O)COCCCCN(c1cnc(-c2ccccc2)c(-c2ccccc2)n1)C1CCCCC1 | 130 to 131
8 | COC(=O)CCn1cc(C)c(=O)[nH]c1=O | 112 to 119
9 | O=C1C=C(NC(=O)C(=O)c2cn(Cc3ccc(Cl)cc3)c3ccccc23)CS1 | 248 to 250
10 | Cc1c(Br)c2cnnc(OCc3ccccc3)c2n1Cc1ccccc1 | 122 to 123
11 | COc1ccc(COc2ccc(COc3ccc4c(c3)CCC(CN(C)C)C4)cc2)cc1 (stereo unspecified) | 106 to 111
12 | Cc1cc(C(=O)N2CCN(c3c(C#N)c(=O)n(Cc4ccc(F)cc4)c4ccccc34)CC2)no1 | 123 to 135
13 | COc1ccc(Cl)cc1C(=O)NCCc1ccc(I)c(S(=O)(=O)N=CN(C)C)c1 | 183 to 186
14 | N#CCCCCn1ccc(NC(=S)NCC(F)(F)F)n1 | 96 to 98
15 | COc1ccc(C(=O)Nc2c(Cl)cncc2Cl)c2c1oc1ccc(NC(=O)NCC(=O)O)cc12 | > 250
16 | C=CCc1cc(Cc2cnc(N)nc2N)c2ccc(C)nc2c1O | 236 to 237
17 | Cc1oc(C=Cc2cccc(C(F)(F)F)c2)nc1CO | 134 to 135
18 | N#CC(=NNc1ccc(C(=O)O)cc1)C(N)=C(C#N)C#N | > 300
19 | O=C(OCC(F)(F)F)C(O)C(O)C(=O)OCC(F)(F)F (stereo unspecified) | 77 to 79
20 | CN1C(=O)C(C(=O)Nc2ccc(Oc3ncc(Cl)cc3Cl)cc2)C(=O)N(C)C1=O | 234 to 235

Row | SMILES | melting point [°C]
21 | O=C(Cn1nnc2ccccc21)Nc1ccc(-n2nc(C(F)(F)F)c(Cl)c2C2CC2)nc1 | 182 to 189
22 | C=C1CC(COc2ccc3ccc(=O)oc3c2)(c2ccccc2)OC1=O (stereo unspecified) | 105 to 106
23 | CCCN1CCN(c2ncc3c(=O)c(C(=O)O)cn(CC)c3n2)CC1 | 149
24 | CCN(CC)CCC1CCN(C(=O)N2c3ccccc3C(=O)Nc3cccnc32)C1 (stereo unspecified) | 137 to 138
25 | O=C(CNc1ccc(F)cc1)N1CCN2C(=O)OC(c3ccccc3)(c3ccccc3)C2C1 (stereo unspecified) | 203 to 204
26 | CNC(=C[N+](=O)[O-])NCc1cnc(Cl)s1 | 181
27 | CC(=NOCCOc1ccc(CC2SC(=O)NC2=O)cc1)c1ccc(-c2ccc(F)cc2)cc1 (stereo unspecified) | 155 to 156
28 | COc1cc(C(C)=O)ccc1OCCN1CCC(c2noc3cc(F)ccc23)CC1 | 132 to 134
29 | C1=C(c2cccc(CNCCOc3cccc4c3OCC4)c2)CCC1 | 118
30 | CCOC(=O)c1cc2ccc3cc4ccccc4cc3c2n1C | 165 to 166
31 | CC1Oc2c(cc(CN3CCN(c4ccc(C#N)cc4)CC3)cc2C2CC2)NC1=O (stereo unspecified) | 194 to 196
32 | CCOP(=O)(OCC)C(C)c1cn(C(c2ccccc2)(c2ccccc2)c2ccccc2)cn1 (stereo unspecified) | 124 to 126
33 | CC[C@H]1COC(=O)N1c1nc(-c2ccc(Br)cc2)c(Cl)s1 | 137 to 139
34 | COC1(OCCc2nc(C(C)C)c(Sc3cc(Cl)cc(Cl)c3)n2C)CCCCCCC1 | 54 to 56
35 | CCOC(=O)c1c(O)c2cc(OCc3ccccc3)ccc2c(=O)n1CC(C)C | 92 to 93
36 | COC(=O)C(=C/c1ccccc1)/C(=C\c1cc(OC)c(OC)c(OC)c1)C(N)=O | 121 to 122
37 | COc1ccc2nc(-c3c[nH]c4ccccc34)[nH]c(=O)c2c1 | 311 to 312
38 | Cc1sc(C=O)cc1C(=O)O | 173
39 | CC(C)NC=C1C(=O)COc2ccccc2C1=O | 89 to 91
40 | Cn1ccc2cc(-c3csc4ncnc(NCc5ccccn5)c34)ccc21 | 184 to 185

Continued, values first:

Row | melting point [°C] | SMILES
41 | 285 to 288 | O=c1[nH]c2ncc(-c3ccc(F)cc3)nc2c(O)c1-c1c(F)cc(F)cc1F
42 | 246 to 248 | O=C(O)c1cn(C2CC2)c2nc(N3CCC(n4ccnn4)CC3)c(F)cc2c1=O
43 | 223 to 224 | O=S(=O)(NCC(F)(F)F)c1ccc(Nc2nc(OCC3CCCCC3)c3nc[nH]c3n2)cc1
44 | 231 to 233 | O=C(O)CCC(=O)N1Cc2c(cc3ccc4c(c3c2-c2ccc3c(c2)OCO3)OCO4)C1=O
45 | 178 to 179 | Cc1ccccc1CC(=NC#N)NC(NC(=O)Cc1ccc(F)c(F)c1)C(C)(C)C (stereo unspecified)
46 | 196 | CN1Cc2c(Cl)ccc3scc(c23)S1(=O)=O
47 | 256 to 260 | Cc1c(C)c(N2CCN(c3ccc(S(C)(=O)=O)cc3)CC2)c(C)c2c1OC(C)(C)C2
48 | 160 | CC1(C(=O)N2C[C@@H](O)C[C@H]2C(=O)NC2(C#N)CC2)CC1
49 | 105 to 107 | CC(C)(C)OC(=O)CON=C1CC(=NOCC(=O)OC(C)(C)C)c2ccccc2-c2ccccc21
50 | 122 to 125 | NCc1ccc(OCc2ccccc2)c(O)c1
51 | 94 to 98 | CSc1nc(Cl)c(-c2c(F)cccc2Cl)c(NC(C)C)n1
52 | 34 to 36 | CC(C)Oc1ccc([N+](=O)[O-])cc1C(F)(F)F
53 | 196 to 198 | CCC(CC)c1ccc(Cl)c2nc3n(c12)CCCCN3c1c(C)cc(C)cc1OC
54 | 147 to 148 | COc1ccc(C(=O)N2c3ccccc3C(N3CCc4ccccc43)CC2C)cc1OC (stereo unspecified)
55 | 140 to 145 | O=C(c1cccs1)c1cnn2c(-c3ccc(F)c(-c4ccc(CO)cc4)c3)ccnc12
56 | 160 | N[C@H]1CCCC[C@@H]1Nc1ccnc2cc(Cl)ccc12
57 | 70 to 73 | CCCCCCCCCCCCn1nnc(CC(=O)O)n1
58 | 207 to 208 | CC(C)COc1ccc(NC(=O)c2cnn(-c3ccc(F)cc3)c2O)cc1C#N
59 | > 280 | COc1cc(Nc2nc3cccc(-c4ccc(C(=O)N(C)C)cc4)c3o2)cc(OC)c1OC

Row | melting point [°C] | SMILES
60 | 133 to 135 | CC(=NOCCOc1ccc(CC2SC(=O)NC2=O)cc1)c1cccc(O)c1 (stereo unspecified)
61 | 178 | CCOc1cc2c(cc1S(=O)(=O)NC(=S)NC)C(CNC(=O)N1CC(C)=C(CC)C1=O)CCO2 (stereo unspecified)
62 | 91 to 92.5 | CCCN1CC(C)=C(C)C2=C1N1CN(OC)C=C1C=N2
63 | 206 to 208 | COC(=O)c1cn(-c2cc(C(=O)OC)c(N)cc2C(F)(F)F)cn1
64 | 110 to 113 | CC(C)(C)OC(=O)N[C@H](Cc1ccc(Cl)c(Cl)c1)C(=O)N1CCC[C@H]1C(=O)NCC1CCc2nc(N)ncc2C1 (stereo partly specified)
65 | 55 to 58 | CON=C(OC)C(=O)c1nccn1Cc1ccccc1
66 | 193 to 194 | CCOC(=O)c1c(CS(=O)c2nccn2C)nc2cc(OC)c(OC)cc2c1-c1ccc(OC)c(OC)c1 (stereo unspecified)
67 | 117 to 120 | COc1cc2c(cc1OC)CN(CCCCc1ccc(NC(=O)c3cccc4c(=O)cc(-c5ccccc5)oc34)cc1)CC2
68 | 110 to 111 | O=C(NCCO)c1ccnc(-c2cccc3cc(Cc4cccc(C(F)(F)F)c4)sc23)c1F
69 | 74 | CNC(=S)NS(=O)(=O)c1cc(CCNC(=O)/C=C/c2cccs2)ccc1OCCc1ccccc1
70 | 53 to 55 | CC(C)C(=O)c1c(C(C)C)nn2ccccc12
71 | 83 to 85 | O=C(O)[C@@H]1CCCN1C(=O)CCBr
72 | 74 to 76 | Cc1ccc(C(=O)Oc2ccccc2)cc1
73 | 280 to 282 | O=S(=O)(O)CCCNC1CCCC1
74 | 160 | O=C1NC(=O)C(CC#Cc2ccc(Cl)cc2)(S(=O)(=O)c2cc(Cl)c(Cl)s2)S1 (stereo unspecified)
75 | 308 to 310 | COc1cc([N+](=O)[O-])ccc1-c1ccc(-c2ccc([N+](=O)[O-])cc2OC)o1
76 | 218 to 222 | O=C1CC(c2ccccc2Cl)Cc2[nH]nc(-c3ccccc3)c21 (stereo unspecified)
77 | 275 to 276 | CCOC(=O)C(=O)Nc1cc2c3c(cccc3c1)C(=O)OC2=O
78 | 83 to 86 | CCCC1(S(=O)(=O)CCCN2CCC(N3Cc4ccccc4C3=O)CC2)c2ccccc2-c2ccccc21

Row | melting point [°C] | SMILES
79 | 94 to 95 | Cc1c(OCC(O)CN2CCOCC2)noc1-c1ccccc1 (stereo unspecified)
80 | 90 to 91 | CCOC(=O)CCc1cccc(OCc2ccc(OCc3nc(-c4ccccc4)oc3C)cc2)c1
81 | 210 to 211 | Cc1ccc(C(=O)NC(NC(=S)Nc2cccc(F)c2F)C(F)(F)F)cc1 (stereo unspecified)
82 | > 290 | COc1ccc2nc(O)nc(O)c2c1
83 | 152 to 153 | CCCCCCCCCCCCc1ccsc1-c1ccc2c(c1)c(=O)c1cc3c(cc12)c(=O)c1cc(-c2sccc2CCCCCCCCCCCC)ccc13
84 | 133 to 135 | COc1ccc(C2=NN(Cc3ccccc3)C(=O)[C@H]3CC=CC[C@@H]23)cc1OC (relative stereo)
85 | 81 to 83 | CCN(CC)CCCNC(=O)Cn1cnc(-c2ccccc2)c1-c1ccccc1
86 | 134 to 137 | O=C1C2CCCC2=Nc2ccccc2N1Cc1ccc(F)cc1 (stereo unspecified)
87 | > 250 | Cc1cc(OCCN)ccc1NC(=O)c1ccc(N2CCNCC2)cc1
88 | 95 to 97 | COc1ccc(N2CCN(CCC(O)COc3ccccc3)CC2)cc1 (stereo unspecified)
89 | 67 to 71 | Cc1nsc(CCCOc2c(C)cc(-c3noc(C)n3)cc2C)n1
90 | 88 to 91 | CCCCOP(=O)(CCCCCC1(C(=O)NCC(F)(F)F)c2ccccc2-c2ccccc21)OCCCC
91 | 129 to 130 | CCOC(c1cccc(OCc2nc(-c3ccccc3)oc2C)c1)c1ccc(OC)cc1OCC(=O)O (stereo unspecified)
92 | 178 to 180 | O=C(CCl)NCC(O)(c1ccccc1)c1ccccc1
93 | 114 to 115 | COc1cccc(CC(=O)O)c1OCCCc1cn(-c2ccc(C(F)(F)F)cc2)nc1C(C)C
94 | 128 to 132 | CN(CC(O)C(N)C(=O)c1cccc(C(F)(F)F)c1)c1ccc(Cl)cc1 (stereo unspecified)
95 | 145 to 146 | CCOC(=O)c1ccc(N=C(Nc2ccc(C(=O)OCC)cc2)c2ccc(OC)cc2)cc1
96 | 108 to 110 | Cc1occc1C(=O)N(O)C1CCCCC1
